Converted amounts (≈) assume the structure as drawn. “And” between values parts separate entries of the source, which are not always exact repeats. Identical values can stand only once. Like-named read-outs stand apart in the source and are kept apart here. Each block holds one molecule with its values, some of them ahead of it.
Columns and labels:
Assay type in all cases: cell-based
[1] = system: Candida albicans (strain n° CA980001); assay: Antifungal activity on a clinical strain of Candida albicans (MTT colorimetric microplate test); details: for CMI or CI80 Candida albicans (CA980001) / MIC: strain CA980001; for MIC: read-out: CMI or CI80 Candida albicans (CA980001); for activity of inhibition of Candida albicans (in words): summary of Tables 27 to 40
[2] = system: Aspergillus fumigatus (strain n°AF 980003); assay: Antifungal activity on a clinical strain of Aspergillus fumigatus (Alamar Blue microplate test); details: for CMI or CI80 Aspergillus fumigatus (AF980003) / MIC: strain AF980003; for MIC: read-out: CMI or CI80 Aspergillus fumigatus (AF980003)
[3] = system: promastigote stage of Leishmania mexicana; assay: Antiparasitic activity on the promastigote form of Leishmania (MTT)

Compound: CCn1cc(C(c2ccc(Cl)cc2)n2ccnc2)c2ccccc21.O=[N+]([O-])O (stereo not shown) [41n]
- CMI or CI80 Candida albicans (CA980001) [1]: 19 ± 10 μM and 8 ± 4 μg/mL

Compound: CCn1cc(C(c2ccc(Cl)cc2Cl)n2ccnc2)c2ccccc21.O=[N+]([O-])O (stereo not shown) [42n]
- CMI or CI80 Candida albicans (CA980001) [1]: 73 ± 3 μM and 32 ± 1 μg/mL

Compound: CCn1ccc2cccc(C(c3ccc(Cl)cc3)n3ccnc3)c21.O=[N+]([O-])O (stereo not shown) [56n]
- CMI or CI80 Candida albicans (CA980001) [1]: 0.16 µg/mL
- MIC [1]: 0.4 µM
- activity of inhibition of Candida albicans (in words) [1]: most active

Compound: Cc1c(C(C)n2ccnc2)c2ccccc2n1Cc1ccc(Cl)cc1Cl.O=[N+]([O-])O (stereo not shown) [71n]
- CMI or CI80 Candida albicans (CA980001) [1]: 52 ± 3 μM and 23.31 μg/mL
- CMI or CI80 Aspergillus fumigatus (AF980003) [2]: 74 ± 3 μM and 28.44 μg/mL

Compound: Brc1ccc(C(Cn2ccc3ccccc32)n2ccnc2)cc1 (stereo not shown) [compound 84]
- CMI or CI80 Aspergillus fumigatus (AF980003) [2]: 68 ± 3 μM and 29 ± 1 μg/mL
- CI50 Leishmania mexicana Promastigotes [3]: 3.6 ± 0.4 µg/mL (≈ 9.83 µM)
- IC50 ([3]; read-out: CI50 Leishmania mexicana Promastigotes): 8.45 ± 1.02 µM

Compound: Fc1ccc(Cn2c(Cn3ccnc3)cc3ccccc32)cc1.O=[N+]([O-])O [3n]
- CMI or CI80 Candida albicans (CA980001) ([1]; 24 h at 37° C., MTT): 16 ± 6 μM and 6 ± 2 μg/ml

- MIC [1]: <0.001 µM
Compound: CC(n1ccc2ccccc21)C(O)(Cn1cncn1)c1ccc(F)cc1F (stereo not shown) [compound 81]

Compound: CCn1cc(C(c2cccc(Cl)c2)n2ccnc2)c2ccccc21.O=[N+]([O-])O (stereo not shown) [40n]
- CMI or CI80 Candida albicans (CA980001) [1]: 7 ± 1 μM and 3.1 ± 1 μg/mL
- activity of inhibition of Candida albicans (in words) [1]: significant activity

Compound: CCn1c(C(c2ccc(Br)cc2)n2ccnc2)c(C)c2ccccc21.O=[N+]([O-])O (stereo not shown) [27n]
- CMI or CI80 Candida albicans (CA980001) [1]: 57 ± 4 μM and 25 ± 2 μg/mL

Compound: Fc1ccc(Cn2ccc3c(Cn4ccnc4)cccc32)cc1 [compound 17]
- CMI or CI80 Candida albicans (CA980001) ([1]; 24 h at 37° C., MTT): 54 ± 1 μM and 16.49 ± 1 μg/ml
- CMI or CI80 Aspergillus fumigatus (AF980003) ([2]; Alamar Blue): 72 ± 3 μM and 21.99 ± 2 μg/ml

Compound: CCn1c(C(c2ccc(Cl)cc2Cl)n2ccnc2)c(C)c2ccccc21 (stereo not shown) [compound 30]
- CMI or CI80 Candida albicans (CA980001) [1]: 76 ± 2 μM and 25 ± 1 μg/mL

Compound: CCn1c(C(c2cccc(Cl)c2)n2ccnc2)c(C)c2ccccc21.O=[N+]([O-])O (stereo not shown) [28n]
- CMI or CI80 Candida albicans (CA980001) [1]: 58 ± 2 μM and 24 ± 1 μg/mL

Compound: N#Cc1ccc(Cn2cc(Cn3ccnc3)c3cc(Br)ccc32)cc1 [compound 13]
- CMI or CI80 Candida albicans (CA980001) ([1]; 24 h at 37° C., MTT): 59 ± 5 μM and 23 ± 2 μg/ml

- MIC [1]: <0.001 µM
Compound: OC(Cn1cncn1)(Cn1ccc2ccccc21)c1ccc(C(F)(F)F)cc1 (stereo not shown) [compound 79]

Compound: Fc1ccc(Cn2ccc3ccc(Cn4ccnc4)cc32)cc1.O=[N+]([O-])O [19n]
- CMI or CI80 Candida albicans (CA980001) ([1]; 24 h at 37° C., MTT): 77 ± 1 μM and 28.36 ± 1 μg/ml
- MIC ([2]; Alamar Blue): >100 µM

- MIC ([2]; Aspergillus fumigatus): 0.71 µM (≈ 0.501 µg/mL)
Compound: CCC(C)n1ncn(-c2ccc(N3CCN(c4ccc(OCC5COC(Cn6cncn6)(c6ccc(Cl)cc6Cl)O5)cc4)CC3)cc2)c1=O (stereo not shown) [Itraconazole]
- CMI or CI80 Aspergillus fumigatus (AF980003) [2]: 0.5 µg/mL

Compound: CCn1c(C(c2ccc(Cl)cc2)n2ccnc2)c(C)c2ccccc21.O=[N+]([O-])O (stereo not shown) [29n]
- CMI or CI80 Candida albicans (CA980001) [1]: 6 ± 1 μM and 2 ± 1 μg/mL
- activity of inhibition of Candida albicans (in words) [1]: significant activity

Compound: CCn1ccc2cccc(C(c3cccc(Cl)c3)n3ccnc3)c21.O=[N+]([O-])O (stereo not shown) [55n]
- CMI or CI80 Candida albicans (CA980001) [1]: 0.039 µg/mL
- MIC [1]: 0.098 µM
- activity of inhibition of Candida albicans (in words) [1]: most active
- MIC [2]: >100 µM

Compound: CCn1c(C(c2cccc(Br)c2)n2ccnc2)c(C)c2ccccc21.O=[N+]([O-])O (stereo not shown) [26n]
- CMI or CI80 Candida albicans (CA980001) [1]: 60 ± 1 μM and 27 ± 1 μg/mL

Compound: CC(c1cn(Cc2ccc(F)cc2F)c2ccccc12)n1ccnc1.O=[N+]([O-])O (stereo not shown) [69n]
- CMI or CI80 Candida albicans (CA980001) [1]: 65 ± 6 μM and 26 ± 5 μg/mL
- CMI or CI80 Aspergillus fumigatus (AF980003) [2]: 64 ± 5 μM and 21.59 μg/mL
- activity against Aspergillus fumigatus (in words) ([2]; summary of Tables 27 to 40): strong activity

Compound: CCn1c(C(c2ccc(F)cc2)n2ccnc2)c(C)c2ccccc21 (stereo not shown) [Cpsé 31, 1-Ethyl-2-[(4-fluorophenyl)(1H-imidazol-1-yl)methyl]-3-methyl-1H-indole]
- MIC ([1]; Candida albicans, 24 h at 37° C., MTT): 58 ± 4 µM (≈ 19.3 µg/mL)
- CMI or CI80 Candida albicans (CA980001) ([1]; 24 h at 37° C., MTT, listed as 18): 18 ± 1 µg/mL
